# Experimental data reported in patent US8197860B2, “Method for enhancing nutrient absorption with astragalosides” (Nuliv Holding Inc., priority 2005, dated 2012).
# Legend:
# Format in all cases: cell-based, human
# Caco-2 cell monolayer [1] = assay: Arginine absorption assay (transport across Caco-2 cell monolayer); parameters: key to * (regulatory effect on arginine transport): ↑: the arrows that point up represent the enhancing effect on the arginine transport; settings: for Regulatory effects on the arginine transport across the Caco2 cell monolayer: Table 3 summary; for Transport rate (arginine): 10 mM L-arginine apical
# Procedure: (§1) To evaluate the effect of the isolated astragaloside compound on the uptake of nutrient substances across the intestinal lumen, Caco-2 cells were grown on permeable filter as an experimental model. Caco2 cells originate from human colonic adenocarcinoma and spontaneously differentiate into an enterocyte-like phenotype after two weeks. The Caco-2 cell line, derived from a human colorectal carcinoma, has been used as an in vitro model system for studying drug absorption in gastrointestinal tract. These cells form monolayers with well-developed tight-junctions, and have been evaluated in details as an in vitro model to study both transcellular transport of nutrients and drugs in intestinal lumen.
# (§2) Caco-2 cells were obtained from the ATCC (American Type Culture Collection). The cells were maintained in Dulbecco's modified Eagle medium (DMEM) containing 4.5 g/L glucose and 25 mM Hepes, supplemented with 10% fetal calf serum, 100 U/mL penicillin G and […]. The medium was changed every second day. The cells were routinely checked for Mycoplasma in monthly intervals. Caco-2 cells were cultured on semi-permeable membranes to differentiate into a highly functionalized epithelial barrier with remarkable morphological and biochemical similarity to the small intestinal columnar epithelium. The Caco-2 cell monolayers could therefore be used to study the membrane transport properties of many compounds. To trypsinize the cells, the culture dish was washed once with phosphate-buffered saline (PBS) followed by adding trypsine-EDTA for 10 minutes. The trypsinized cells were separated and filtered into single cells using a 35-μm strainer cap (Falcon 2235) before being seeded for further experiments.
# (§3) In measuring transport of arginine across the Caco-2 cell monolayer, both sides of the transwells were washed with arginine incubation buffer consisting of: 137 mM NaCl, 10 mM Hepes, 0.3 mM NaH2PO4, 0.3 mM K2HPO4, 5.4 mM KCl, 2.8 mM CaCl2, 1 mM MgSO4, 10 mM glucose, adjusted to pH 7.4. Then, the cell layer was preincubated in the incubation buffer at 37° C. for 1 h. The volume of incubation buffer was 0.2 mL and 0.9 mL in the apical and basolateral chambers, respectively. The cells were replaced with fresh incubation medium in both chambers prior to the transport experiment. The transport experiment was initiated by replacing the incubation solution on the apical side with solution containing 10 mM of L-arginine in which 0.125 μCi/mL of L-[^3H]-arginine was included. At designated time intervals, 10 μL-solution samples were removed from the basolateral side and radioactivity of each sample was counted using a microplate liquid scintillation counter (TopCount, Packard NXT). During the experiment, when a 10 μL-solution sample was removed from the basolateral side every time, 10 μL buffer was supplemented to keep the volume constant. The uptake of [^3H]-mannitol was used to correct for nonspecific transport of molecules across the monolayer membrane. Results were expressed as the nanomoles of arginine transport across the Caco-2 cell monolayers with respect to time in minutes (nmol/min).
# Caco2 cells = assay: Folate uptake assay; parameters: key to * (regulatory effect on folate uptake): ↑: the arrows that point up represent the enhancing effect on folate uptake; settings: compound 0.1 μM; for Uptake rate (folate): 2 days, 5 μM folate, pH 6.0
# Procedure: as §1, §2
# Caco-2 cells (5×10^4) were seeded in a 48-well plate and maintained in culture medium (DMEM with 10% FBS, 1% nonessential amino acids, L-glutamine, penicillin G (100 U/mL), streptomycin (10 μg/mL), and amphotericin B (2.5 μg/mL) in a 37° C. incubator for 10 days for the cells to differentiate. The culture medium was changed once every two days. The cells were then washed with PBS before replenishing with the culture medium containing 5% FBS and various astragalosides at the indicated concentrations (0.01, 0.1 and 1 μM) for 48 hours. The Caco2 cells were washed out of remaining glucose with PBS and replaced in the glucose buffer (80 mM NaCl, 100 mM mannitol, 20 mM Tris-HCl, pH 7.4, 3 mM K2HPO4, 1 mM CaCl2, 1 mg/mL BSA) for 1 hour. Glucose uptake was initiated by replacing the glucose buffer with 0.2 ml of glucose buffer containing 2 μCi/mL of ^14C-glucose and unlabeled cold glucose to give a final glucose concentration of 25 mM. Glucose uptake was stopped by removing the glucose buffer and washing with PBS at designated time intervals. The cells were lysed in 0.2 mL of 0.2 N NaOH, and 20 μL of the cell lysate were transferred to the filter-bottomed UniFilter plates (Perkin-Elmer, Wellesley, Mass., USA) and dried in a vacuum oven at 37° C. The bottom of the UniFilter plate was sealed and 25 μL of the counting solution were added into each well. Adhesive plate sealers were used in place of the lids and radioactivity of each sample was counted using the microplate liquid scintillation counter (TopCount, Packard NXT, Packard BioScience Company, Meriden, Conn., USA). The amount of glucose accumulated in the cells was calculated and normalized to protein concentration, and uptake rate was expressed as nanomoles of glucose per minutes per milligram of cell protein (nmol/min/mg). Protein concentration was determined by a standard Bicinchoninic acid (BCA) protein assay. Nonspecific glucose uptake was measured by adding 2 μCi of L-[^14C]-glucose and subtracting from each determination to obtain specific glucose uptake.
# The Caco2 cells were subjected to folate uptake test in a manner similar to that described in the glucose uptake assay in Example 1 above. […]
# Caco-2 cell monolayer [2] = assay: Tryptophan absorption assay (transport across Caco-2 cell monolayer); parameters: key to * (regulatory effect on tryptophan transport): ↑: the arrows that point up represent the enhancing effect on the tryptophan transport; settings: for Regulatory effects on the tryptophan transport across the Caco2 cell monolayer: Table 4 summary; for Tryptophan transport rate: concentration from 0.01 μM to 1 mM
# Procedure: as §1, §2, §3
# The experimental procedures similar to those in Example 2 were used for measuring the uptake of tryptophan molecules across the Caco-2 membrane, except using a tryptophan incubation buffer consisting of 137 mM choline chloride, 10 mM Hepes, 0.6 mM KH2PO4, 5.4 mM KCl, 2.8 mM CaCl2, 1 mM MgSO4, and 10 mM glucose, and having its pH adjusted to 7.4. Results were expressed as the nanomoles of tryptophan transport across the Caco-2 cell monolayers with respect to time in minutes (nmol/min).
# [3] = concentration from 0.01 μM to 1 μM
SMILES,Regulatory effects on the arginine transport across the Caco2 cell monolayer (Caco-2 cell monolayer [1]),* (regulatory effect on arginine transport) (Caco-2 cell monolayer [1]; compound 0.01 μM),"Percentage (arginine transport, control = 100) (Caco-2 cell monolayer [1]; compound 0.01 μM) [%]",Transport rate (arginine) (Caco-2 cell monolayer [1]; compound 0.01 μM) [nmol/min],* (regulatory effect on arginine transport) (Caco-2 cell monolayer [1]; compound 0.1 μM),"Percentage (arginine transport, control = 100) (Caco-2 cell monolayer [1]; compound 0.1 μM) [%]",Transport rate (arginine) (Caco-2 cell monolayer [1]; compound 0.1 μM) [nmol/min],* (regulatory effect on arginine transport) (Caco-2 cell monolayer [1]; compound 1 μM),"Percentage (arginine transport, control = 100) (Caco-2 cell monolayer [1]; compound 1 μM) [%]",* (regulatory effect on folate uptake) (Caco2 cells),Percentage (folate uptake vs own control) (Caco2 cells) [%],Uptake rate (folate) (Caco2 cells) [pmol/mg/min],Regulatory effects on the tryptophan transport across the Caco2 cell monolayer (Caco-2 cell monolayer [2]),* (regulatory effect on tryptophan transport) (Caco-2 cell monolayer [2]; compound 0.01 μM),"Percentage (tryptophan transport, control = 100) (Caco-2 cell monolayer [2]; compound 0.01 μM) [%]",Transport rate (tryptophan) (Caco-2 cell monolayer [2]; compound 0.01 μM) [nmol/min],* (regulatory effect on tryptophan transport) (Caco-2 cell monolayer [2]; compound 0.1 μM),"Percentage (tryptophan transport, control = 100) (Caco-2 cell monolayer [2]; compound 0.1 μM) [%]",Transport rate (tryptophan) (Caco-2 cell monolayer [2]; compound 0.1 μM) [nmol/min],Tryptophan transport rate (Caco-2 cell monolayer [2]),further results
"CC(=O)O[C@H]1[C@H](O[C@H]2CC[C@]34C[C@]35CC[C@]3(C)[C@@H]([C@@]6(C)CC[C@@H](C(C)(C)O)O6)[C@@H](O)C[C@@]3(C)[C@@H]5C[C@H](O[C@@H]3O[C@H](CO)[C@@H](O)[C@H](O)[C@H]3O)[C@H]4C2(C)C)OC[C@@H](OC(C)=O)[C@@H]1O [IsoAS1, isoastragaloside I]",had regulatory effects on the arginine transport,↑,135.49,14.4776 ± 0.5519,↑,199.44,21.3107 ± 1.5130,↑,135.41,↑,144.83,73.460 ± 3.6060,had regulatory effects on the tryptophan transport,↑,115.97,10.370 ± 0.8808,↑,149.52,13.370 ± 0.3301,increased,"Transport rate (arginine) (Caco-2 cell monolayer [1]; compound 1 μM): 14.4734 ± 1.1350 nmol/min; Arginine transport rate (Caco-2 cell monolayer [1]; [3]): increased; * (regulatory effect on tryptophan transport) (Caco-2 cell monolayer [2]; compound 1 μM): ↑; Percentage (tryptophan transport, control = 100) (Caco-2 cell monolayer [2]; compound 1 μM): 118.54%; Transport rate (tryptophan) (Caco-2 cell monolayer [2]; compound 1 μM): 10.600 ± 0.8058 nmol/min"
"CC(C)(O)[C@@H]1CC[C@](C)([C@H]2[C@@H](O)C[C@@]3(C)[C@@H]4C[C@H](O)[C@H]5C(C)(C)[C@@H](O[C@@H]6OC[C@@H](O)[C@H](O)[C@H]6O[C@@H]6O[C@H](CO)[C@@H](O)[C@H](O)[C@H]6O)CC[C@@]56C[C@@]46CC[C@]23C)O1 [AS3, astragaloside III]",had regulatory effects on the arginine transport,↑,121.74,13.0084 ± 1.0510,↑,124.33,13.2858 ± 1.4110,↑,148.18,↑,145.41,80.380 ± 6.2170,had regulatory effects on the tryptophan transport,↑,159.81,14.290 ± 1.3910,↑,151.98,13.590 ± 1.0080,increased,"Transport rate (arginine) (Caco-2 cell monolayer [1]; compound 1 μM): 15.8341 ± 1.0000 nmol/min; Arginine transport rate (Caco-2 cell monolayer [1]; [3]): increased; * (regulatory effect on tryptophan transport) (Caco-2 cell monolayer [2]; compound 1 μM): ↑; Percentage (tryptophan transport, control = 100) (Caco-2 cell monolayer [2]; compound 1 μM): 270.63%; Transport rate (tryptophan) (Caco-2 cell monolayer [2]; compound 1 μM): 24.200 ± 1.0260 nmol/min"
"CC(=O)O[C@H]1[C@H](O[C@H]2CC[C@]34C[C@]35CC[C@]3(C)[C@@H]([C@@]6(C)CC[C@@H](C(C)(C)O)O6)[C@@H](O)C[C@@]3(C)[C@@H]5C[C@H](O[C@@H]3O[C@H](CO)[C@@H](O)[C@H](O)[C@H]3O)[C@H]4C2(C)C)OC[C@@H](O)[C@@H]1O [AS2, astragaloside II]",had regulatory effects on the arginine transport,↑,151.94,16.2358 ± 1.6190,↑,161.69,17.2771 ± 1.6170,,,↑,129.05,69.970 ± 3.7720,had regulatory effects on the tryptophan transport,↑,115.07,10.290 ± 0.4115,↑,130.28,11.650 ± 0.5789,increased,"* (regulatory effect on arginine transport) (Caco-2 cell monolayer [1]; compound 0.001 μM): ↑; Percentage (arginine transport, control = 100) (Caco-2 cell monolayer [1]; compound 0.001 μM): 136.97%; Transport rate (arginine) (Caco-2 cell monolayer [1]; compound 0.001 μM): 14.6355 ± 1.2910 nmol/min; Arginine transport rate (Caco-2 cell monolayer [1]; concentration from 0.001 μM to 0.1 μM): increased"
